From ChEMBL document CHEMBL5303573, “Mapping human microbiome drug metabolism by gut bacteria and their genes” (Nature, 2019)

What was measured:
[1] = The drug is tested on Subdoligranulum variabile strain: DSM15176 for biotransformation. The drug concentrations were measured before and after a 12-h incubation by liquid-chromatography-coupled mass spectrometry (LC–MS); settings: 2 µM
[2] = bacteroides fragilis, 12 h, 2 µM
Description: The drug is tested on Bacteroides fragilis strain: 3397 (T10) for biotransformation. The drug concentrations were measured before and after a 12-h incubation by liquid-chromatography-coupled mass spectrometry (LC–MS)

[3] = roseburia intestinalis, 12 h, 2 µM
Description: The drug is tested on Roseburia intestinalis strain: L1-82 for biotransformation. The drug concentrations were measured before and after a 12-h incubation by liquid-chromatography-coupled mass spectrometry (LC–MS)

[4] = parabacteroides johnsonii, 12 h, 2 µM
Description: The drug is tested on Parabacteroides johnsonii strain: DSM18315 for biotransformation. The drug concentrations were measured before and after a 12-h incubation by liquid-chromatography-coupled mass spectrometry (LC–MS)

[5] = The drug is tested on Alistipes indistinctus strain: DSM22520 for biotransformation. The drug concentrations were measured before and after a 12-h incubation by liquid-chromatography-coupled mass spectrometry (LC–MS); settings: 2 µM
[6] = The drug is tested on Eubacterium rectale strain: ATCC33656 for biotransformation. The drug concentrations were measured before and after a 12-h incubation by liquid-chromatography-coupled mass spectrometry (LC–MS); settings: agathobacter rectalis, 2 µM
[7] = The drug is tested on Collinsella aerofaciens strain: ATCC25986 for biotransformation. The drug concentrations were measured before and after a 12-h incubation by liquid-chromatography-coupled mass spectrometry (LC–MS); settings: 2 µM
[8] = The drug is tested on Providencia stuartii strain: ATCC25827 for biotransformation. The drug concentrations were measured before and after a 12-h incubation by liquid-chromatography-coupled mass spectrometry (LC–MS); settings: 2 µM
[9] = The drug is tested on Parabacteroides merdae strain: ATCC43184 for biotransformation. The drug concentrations were measured before and after a 12-h incubation by liquid-chromatography-coupled mass spectrometry (LC–MS); settings: 2 µM
[10] = The drug is tested on Ruminococcus gnavus strain: ATCC29149 for biotransformation. The drug concentrations were measured before and after a 12-h incubation by liquid-chromatography-coupled mass spectrometry (LC–MS); settings: mediterraneibacter gnavus, 2 µM
[11] = The drug is tested on Clostridium sporogenes strain: ATCC15579 for biotransformation. The drug concentrations were measured before and after a 12-h incubation by liquid-chromatography-coupled mass spectrometry (LC–MS); settings: 2 µM
[12] = The drug is tested on Dorea formicigenerans strain: ATCC27755 for biotransformation. The drug concentrations were measured before and after a 12-h incubation by liquid-chromatography-coupled mass spectrometry (LC–MS); settings: 2 µM
[13] = The drug is tested on Bacteroides fragilis strain: HMW615 for biotransformation. The drug concentrations were measured before and after a 12-h incubation by liquid-chromatography-coupled mass spectrometry (LC–MS); settings: 2 µM
[14] = enterocloster bolteae, 12 h, 2 µM
Description: The drug is tested on Clostridium bolteae strain: ATCCBAA-613 for biotransformation. The drug concentrations were measured before and after a 12-h incubation by liquid-chromatography-coupled mass spectrometry (LC–MS)

[15] = The drug is tested on Bacteroides vulgatus strain: ATCC8482 for biotransformation. The drug concentrations were measured before and after a 12-h incubation by liquid-chromatography-coupled mass spectrometry (LC–MS); settings: phocaeicola vulgatus, 2 µM
[16] = The drug is tested on Ruminococcus lactaris strain: ATCC29176 for biotransformation. The drug concentrations were measured before and after a 12-h incubation by liquid-chromatography-coupled mass spectrometry (LC–MS); settings: 2 µM
[17] = bacteroides fragilis, 12 h, 2 µM; remark: listed apart in the source
Description: The drug is tested on Bacteroides fragilis strain: NCTC 9343 for biotransformation. The drug concentrations were measured before and after a 12-h incubation by liquid-chromatography-coupled mass spectrometry (LC–MS)

[18] = The drug is tested on Blautia hansenii strain: DSM20583 for biotransformation. The drug concentrations were measured before and after a 12-h incubation by liquid-chromatography-coupled mass spectrometry (LC–MS); settings: 2 µM
[19] = victivallis vadensis, 12 h, 2 µM
Description: The drug is tested on Victivallis vadensis strain: ATCC BAA-548 for biotransformation. The drug concentrations were measured before and after a 12-h incubation by liquid-chromatography-coupled mass spectrometry (LC–MS)

[20] = segatella copri, 12 h, 2 µM
Description: The drug is tested on Prevotella copri strain: DSM18205 for biotransformation. The drug concentrations were measured before and after a 12-h incubation by liquid-chromatography-coupled mass spectrometry (LC–MS)

Row | SMILES | Bacterial Biotransformation [1] | Bacterial Biotransformation [2] | Bacterial Biotransformation [3] | Bacterial Biotransformation [4] | Bacterial Biotransformation [5] | Bacterial Biotransformation [6] | Bacterial Biotransformation [7] | Bacterial Biotransformation [8] | Bacterial Biotransformation [9] | Bacterial Biotransformation [10] | Bacterial Biotransformation [11] | Bacterial Biotransformation [12] | Bacterial Biotransformation [13] | Bacterial Biotransformation [14] | Bacterial Biotransformation [15] | Bacterial Biotransformation [16] | Bacterial Biotransformation [17] | Bacterial Biotransformation [18] | Bacterial Biotransformation [19] | Bacterial Biotransformation [20]
1 | CC[C@@H](CO)NC(=O)[C@@H]1C=C2c3cccc4c3c(cn4C)C[C@H]2N(C)C1.O=C(O)/C=C\C(=O)O [METHYSERGIDE MALEATE] | Compound metabolized | Compound metabolized | Compound metabolized | Compound metabolized | Compound metabolized | Compound metabolized | Compound metabolized | Compound metabolized | Compound metabolized | Compound metabolized | Compound metabolized | Compound metabolized | Compound NOT metabolized | Compound metabolized | Compound metabolized | Compound metabolized | Compound metabolized | Compound metabolized | Compound metabolized | Compound metabolized
2 | COc1c(C)c2c(c(O)c1C/C=C(\C)CCC(=O)OCCN1CCOCC1)C(=O)OC2 [MYCOPHENOLATE MOFETIL] | Compound metabolized | Compound metabolized | Compound metabolized | Compound metabolized | Compound metabolized | Compound metabolized | Compound metabolized | Compound metabolized | Compound metabolized | Compound metabolized | Compound metabolized | Compound metabolized | Compound metabolized | Compound metabolized | Compound metabolized | Compound metabolized | Compound metabolized | Compound metabolized | Compound metabolized | Compound metabolized
3 | CCOC(=O)C1=C(C)NC(C)=C(C(=O)OC)C1c1cccc([N+](=O)[O-])c1 (stereo not given) [NITRENDIPINE] | Compound metabolized | Compound metabolized | Compound metabolized | Compound metabolized | Compound metabolized | Compound metabolized | Compound metabolized | Compound NOT metabolized | Compound metabolized | Compound metabolized | Compound metabolized | Compound metabolized | Compound metabolized | Compound metabolized | Compound metabolized | Compound metabolized | Compound metabolized | Compound metabolized | Compound metabolized | Compound metabolized
4 | CNC(=C[N+](=O)[O-])NCCSCc1csc(CN(C)C)n1 [NIZATIDINE] | Compound metabolized | Compound NOT metabolized | Compound NOT metabolized | Compound metabolized | Compound metabolized | Compound metabolized | Compound metabolized | Compound metabolized | Compound NOT metabolized | Compound metabolized | Compound NOT metabolized | Compound metabolized | Compound metabolized | Compound metabolized | Compound metabolized | Compound metabolized | Compound metabolized | Compound metabolized | Compound NOT metabolized | Compound metabolized
5 | COc1ccc2[nH]c([S+]([O-])Cc3ncc(C)c(OC)c3C)nc2c1 (stereo not given) [OMEPRAZOLE] | Compound metabolized | Compound metabolized | Compound metabolized | Compound metabolized | Compound metabolized | Compound metabolized | Compound metabolized | Compound metabolized | Compound metabolized | Compound metabolized | Compound metabolized | Compound metabolized | Compound metabolized | Compound metabolized | Compound metabolized | Compound metabolized | Compound metabolized | Compound metabolized | Compound metabolized | Compound metabolized
6 | COc1ccnc(C[S+]([O-])c2nc3ccc(OC(F)F)cc3[nH]2)c1OC (stereo not given) [PANTOPRAZOLE] | Compound metabolized | Compound metabolized | Compound metabolized | Compound metabolized | Compound metabolized | Compound metabolized | Compound metabolized | Compound metabolized | Compound metabolized | Compound metabolized | Compound metabolized | Compound metabolized | Compound metabolized | Compound metabolized | Compound metabolized | Compound metabolized | Compound metabolized | Compound metabolized | Compound metabolized | Compound metabolized
7 | Nc1ccc(/N=N/c2ccccc2)c(N)n1 [PHENAZOPYRIDINE] | Compound metabolized | Compound metabolized | Compound metabolized | Compound metabolized | Compound metabolized | Compound metabolized | Compound metabolized | Compound NOT metabolized | Compound metabolized | Compound metabolized | Compound metabolized | Compound metabolized | Compound metabolized | Compound metabolized | Compound metabolized | Compound metabolized | Compound metabolized | Compound metabolized | Compound metabolized | Compound metabolized
8 | CCS(=O)(=O)CCn1c([N+](=O)[O-])cnc1C [TINIDAZOLE] | Compound metabolized | Compound metabolized | Compound metabolized | Compound metabolized | Compound metabolized | Compound metabolized | Compound metabolized | Compound NOT metabolized | Compound metabolized | Compound metabolized | Compound metabolized | Compound metabolized | Compound metabolized | Compound metabolized | Compound metabolized | Compound metabolized | Compound metabolized | Compound metabolized | Compound metabolized | Compound metabolized
